Results published in ChEMBL document CHEMBL1133702.

Biological target: Estrogen receptor (Ovis aries) (UniProt P49885+Q9TU15)

`C[C@]12C[C@H](c3ccc(OCCOS(C)(=O)=O)cc3)[C@@H]3c4ccc(O)cc4CC[C@H]3[C@@H]1CC[C@@H]2O` showed an RAC app of 39.9.

Compound `CN(CCOc1ccc([C@H]2C[C@]3(C)[C@@H](O)CC[C@H]3[C@@H]3CCc4cc(O)ccc4[C@H]32)cc1)C(=O)CCl` has an RAC app of 6.96.

`CN(CC#Cc1ccc([C@H]2C[C@]3(C)[C@@H](O)CC[C@H]3[C@@H]3CCc4cc(O)ccc4[C@H]32)cc1)C(=O)CCl` was tested, and the RAC app was 19.4.

Compound `C[C@]12C[C@H](c3ccc(OCCCCCNC(=O)CBr)cc3)[C@@H]3c4ccc(O)cc4CC[C@H]3[C@@H]1CC[C@@H]2O` has an RAC app of 17.1.

`C[C@]12C[C@H](c3ccc(OCCNC(=O)CCl)cc3)[C@@H]3c4ccc(O)cc4CC[C@H]3[C@@H]1CC[C@@H]2O` gave an RAC app of 3.3.

For `C[C@]12C[C@H](c3ccc(OCCCCCI)cc3)[C@@H]3c4ccc(O)cc4CC[C@H]3[C@@H]1CC[C@@H]2O`, the RAC app was 8.23.

`C[C@]12C[C@H](c3ccc(C#CCNC(=O)CCl)cc3)[C@@H]3c4ccc(O)cc4CC[C@H]3[C@@H]1CC[C@@H]2O` showed an RAC app of 14.5.

With `CN(CCOc1ccc([C@H]2C[C@]3(C)[C@@H](O)CC[C@H]3[C@@H]3CCc4cc(O)ccc4[C@H]32)cc1)C(=O)CBr` the RAC app was 4.22.

With `C[C@]12C[C@H](c3ccc(OCCI)cc3)[C@@H]3c4ccc(O)cc4CC[C@H]3[C@@H]1CC[C@@H]2O` the RAC app was 10.6.

`CN(CCCCCOc1ccc([C@H]2C[C@]3(C)[C@@H](O)CC[C@H]3[C@@H]3CCc4cc(O)ccc4[C@H]32)cc1)C(=O)CBr` gave an RAC app of 9.7.
